Assay results as given in PMC5915743, “Screening of a Novel Fragment Library with Functional Complexity against Mycobacterium tuberculosis InhA” (Chemmedchem, 2018).

Key:
[1] = target: T1, Mycobacterium tuberculosis InhA (Mycobacterium tuberculosis, UniProt P9WGR1); assay: surface plasmon resonance, equilibrium; type: binding; settings: read-out: SPR pK d ^[f] (converted)
Excerpt: surface plasmon resonance, equilibrium on Mycobacterium tuberculosis InhA

[2] = target: T1, Mycobacterium tuberculosis InhA; assay: InhA biochemical inhibition assay; settings: for IC50: read-out: InhA pIC50 ^[a][e] (% 500 μM) (converted); for InhA pIC50 ^[a][e] (% 500 μM): tested up to 1 mM
Excerpt: InhA biochemical inhibition assay on Mycobacterium tuberculosis InhA

[3] = target: T1, Mycobacterium tuberculosis InhA; assay: STD 1H NMR; type: binding; settings: NADH-bound InhA; co-crystallised with ligands
[4] = published lead, not marked as earlier data in table

T1 sequence (P9WGR1 whole entry, looked up): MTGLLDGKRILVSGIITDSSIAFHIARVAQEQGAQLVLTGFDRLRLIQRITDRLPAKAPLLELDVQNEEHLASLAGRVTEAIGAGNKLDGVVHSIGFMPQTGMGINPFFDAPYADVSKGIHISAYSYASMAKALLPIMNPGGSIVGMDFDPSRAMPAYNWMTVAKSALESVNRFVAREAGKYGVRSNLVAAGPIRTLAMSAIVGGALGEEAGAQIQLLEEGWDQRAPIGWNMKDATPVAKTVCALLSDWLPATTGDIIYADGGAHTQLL

SMILES	Kd [1] [µM]	IC50 [2] [µM]	InhA pIC50 ^[a][e] (% 500 μM) [2]	further results
Cc1cc(=O)c(C2CCN(c3ncccn3)CC2)c(C)[nH]1 [compound 41, 41]	6.31	1		
O=C(NCc1cccnc1)NC1CCN(c2ncccn2)CC1 [compound 37, 37]			4.1±0.06	
Cc1cc(N)n(Cc2ccc(C(=O)NCc3ccc(F)cc3Cl)cc2)n1 [compound 46, 46]	0.501		6.3±0.25	
O=c1[nH]c(CC2CCCCC2)cc(O)c1C1CCN(c2ncccn2)CC1 [compound 42, 42]			6.5±0.03	
OCc1ccc(Cn2cccn2)cc1 [compound 4, 4]		> 1000		
Cc1cncc(CNC(=O)NC2CCN(c3ncccn3)CC2)c1 [compound 39, 39]	20		5.0±0.14	
Cc1ccn(C(C)c2nnc(Nc3ccn(Cc4c(F)cccc4Cl)n3)s2)n1 (stereo not shown) [compound 45, 45]	0.01			InhA pIC50 ^[a][e] (% 500 μM) [2, 4]: 8.1±0.27
NC(=O)C1=CN([C@@H]2O[C@H](COP(=O)(O)OP(=O)(O)OC[C@H]3O[C@@H](n4cnc5c(N)ncnc54)[C@H](O)[C@@H]3O)[C@@H](O)[C@H]2O)C=CC1 [NADH]				STD 1H NMR [3]: NADH binding was also observed in the STD‐NMR spectra
Cc1cc(=O)c(-c2ccccc2)c(C)[nH]1 [compound 40, 40]	25.1	15.8		
Cc1cncc(CNC(=O)NC2CCCCC2)c1 [compound 38, 38]	631	100		
Cc1cc(N)n(Cc2ccccc2)n1 [compound 9, 9]	501		3.4±0.23	
O=C(CCc1cccnc1)NC1CCN(c2ncccn2)CC1 [compound 36, 36]		> 1000		
CCOC(=O)[C@@H]1CCc2nc(C)sc2C1 [compound 22, 22]		794		
CC(C)Cc1cc(O)c(C2CCN(c3ncccn3)CC2)c(=O)[nH]1 [compound 43, 43]	200	6.31		
Cc1cc(C)n(Cc2ccc(C(=O)NCc3ccc(F)cc3Cl)cc2)n1 [compound 44, 44]				InhA pIC50 ^[a][e] (% 500 μM) [2, 4]: 6.9±0.07
Cc1cc(N)n(Cc2nnc(Nc3ccn(Cc4c(F)cccc4Cl)n3)s2)n1 [compound 47, 47]	0.0794		7.3±0.20	
